Measured values as given in ChEMBL document CHEMBL5154690, “Discovery of a tricyclic farnesoid X receptor agonist HEC96719, a clinical candidate for treatment of non-alcoholic steatohepatitis” (Eur J Med Chem, 2022).
Active and inactive are the calls of the source. The rule behind the calls is not given here.

Key:
[1] = Half-life in male Sprague-Dawley rat at 5 mg/kg, po measured by LC-MS/MS analysis; assay type: ADME, organism-based; details: in vivo
[2] = Oral bioavailability in male Sprague-Dawley rat at 5 mg/kg measured by LC-MS/MS analysis; assay type: ADME, organism-based; details: in vivo
Mus musculus [3] = experiment: Anti-NASH activity against high fat (HF) diet-induced nonalcoholic steatohepatitis in leptin-deficient ob/ob mouse model assessed as reduction in serum TG level at 3 mg/kg, po administered once daily from week 5 to 10; assay type: functional, organism-based
Estrogen receptor beta = Estrogen receptor beta (Homo sapiens, UniProt Q92731); experiment: Agonist activity at estrogen receptor beta (unknown origin)
[4] = target: T1, Peroxisome proliferator-activated receptor delta (Homo sapiens, UniProt Q03181); experiment: Agonist activity at PPARdelta (unknown origin)
T1 sequence (Q03181 whole entry): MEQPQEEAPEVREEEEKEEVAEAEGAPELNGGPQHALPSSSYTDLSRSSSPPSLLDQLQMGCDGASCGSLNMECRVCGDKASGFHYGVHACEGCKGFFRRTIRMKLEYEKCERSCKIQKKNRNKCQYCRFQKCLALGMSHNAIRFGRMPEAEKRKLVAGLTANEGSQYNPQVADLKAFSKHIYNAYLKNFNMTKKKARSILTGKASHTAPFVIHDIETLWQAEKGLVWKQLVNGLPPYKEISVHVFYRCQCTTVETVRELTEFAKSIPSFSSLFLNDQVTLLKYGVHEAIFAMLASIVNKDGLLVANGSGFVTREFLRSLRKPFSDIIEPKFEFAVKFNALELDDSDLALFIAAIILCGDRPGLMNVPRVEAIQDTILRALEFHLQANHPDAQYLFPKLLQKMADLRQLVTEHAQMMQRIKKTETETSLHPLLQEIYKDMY

[5] = target: T2, Bile acid receptor (Rattus norvegicus) (UniProt Q62735); experiment: In vivo activation of FXR in male Sprague-Dawley rat assessed as fold increase in ileum FGF15 level at 5 mg/kg, po administered as single dose measured at 1 hr by RT-qPCR assay; assay type: functional, organism-based
T2 sequence (whole entry): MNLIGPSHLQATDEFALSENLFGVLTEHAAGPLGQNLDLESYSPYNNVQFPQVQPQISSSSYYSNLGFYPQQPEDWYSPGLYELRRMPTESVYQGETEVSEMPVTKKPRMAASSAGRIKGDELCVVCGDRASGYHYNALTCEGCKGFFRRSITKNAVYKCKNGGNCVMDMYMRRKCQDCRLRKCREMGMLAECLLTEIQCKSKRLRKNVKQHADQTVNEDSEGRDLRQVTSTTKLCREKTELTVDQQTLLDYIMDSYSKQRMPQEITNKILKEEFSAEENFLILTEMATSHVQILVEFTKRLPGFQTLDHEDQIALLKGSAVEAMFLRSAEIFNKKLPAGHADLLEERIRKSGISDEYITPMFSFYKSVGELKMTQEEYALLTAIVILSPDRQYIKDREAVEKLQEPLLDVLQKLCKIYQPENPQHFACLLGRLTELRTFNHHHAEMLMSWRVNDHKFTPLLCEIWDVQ

Mus musculus [6] = experiment: Anti-NASH activity against high fat (HF) diet-induced nonalcoholic steatohepatitis in leptin-deficient ob/ob mouse model assessed as reduction in serum ALT level at 0.1 to 1 mg/kg, po administered once daily from week 5 to 10; assay type: functional, organism-based; details: dose 0.1-1 mg/kg
Mus musculus [7] = experiment: Anti-NASH activity against high fat (HF) diet-induced nonalcoholic steatohepatitis in leptin-deficient ob/ob mouse model assessed as reduction in serum TG level at 0.1 to 1 mg/kg, po administered once daily from week 5 to 10; assay type: functional, organism-based; details: dose 0.1-1 mg/kg
Mus musculus [8] = experiment: Anti-NASH activity in western style diet-induced nonalcoholic steatohepatitis model of male C57BL/6 mouse assessed as reduction in liver TG level at 1 mg/kg, po administered once daily from week 32 to 44; assay type: functional, organism-based
Mus musculus [9] = experiment: Anti-NASH activity in western style diet-induced nonalcoholic steatohepatitis model of male C57BL/6 mouse assessed as reduction in NASH activity score (NAS) at 1 mg/kg, po administered once daily from week 32 to 44; assay type: functional, organism-based
Mus musculus [10] = experiment: Antifibrotic activity in C57BL/6 mouse model of CCI4-induced liver fibrosis assessed as decrease in serum TBIL level at 0.1 to 1 mg/kg, po administered once daily for 4 weeks; assay type: functional, organism-based; details: dose 0.1-1 mg/kg
Mus musculus [11] = experiment: Antifibrotic activity in C57BL/6 mouse model of CCI4-induced liver fibrosis assessed as decrease in serum ALT level at 1 mg/kg, po administered once daily for 4 weeks; assay type: functional, organism-based
[12] = Drug recovery in heart of male Sprague-Dawley rat at 4.5 mg/kg, po administered as C14-lableled compound and assessed as radioactivity and measured at 0.25 hrs; assay type: ADME, organism-based; details: in vivo
[13] = Drug recovery in lung of male Sprague-Dawley rat at 4.5 mg/kg, po administered as C14-lableled compound and assessed as radioactivity and measured at 0.25 hrs; assay type: ADME, organism-based; details: in vivo
[14] = Drug recovery in liver of male Sprague-Dawley rat at 4.5 mg/kg, po administered as C14-lableled compound and assessed as radioactivity and measured at 0.25 hrs; assay type: ADME, organism-based; details: in vivo
[15] = Drug recovery in liver of male Sprague-Dawley rat at 4.5 mg/kg, po administered as C14-lableled compound and assessed as radioactivity and measured at 1 hr; assay type: ADME, organism-based; details: in vivo
[16] = Drug recovery in brain of male Sprague-Dawley rat at 4.5 mg/kg, po administered as C14-lableled compound and assessed as radioactivity and measured at 6 hrs; assay type: ADME, organism-based; details: in vivo, BLD = below limit of detection
[17] = Drug recovery in kidney of male Sprague-Dawley rat at 4.5 mg/kg, po administered as C14-lableled compound and assessed as radioactivity and measured at 6 hrs; assay type: ADME, organism-based; details: in vivo
[18] = Drug recovery in ileum of male Sprague-Dawley rat at 4.5 mg/kg, po administered as C14-lableled compound and assessed as radioactivity and measured at 6 hrs; assay type: ADME, organism-based; details: in vivo
[19] = Drug recovery in brain of male Sprague-Dawley rat at 4.5 mg/kg, po administered as C14-lableled compound and assessed as radioactivity and measured at 24 hrs; assay type: ADME, organism-based; details: in vivo, BLD = below limit of detection
[20] = Drug recovery in pancreas of male Sprague-Dawley rat at 4.5 mg/kg, po administered as C14-lableled compound and assessed as radioactivity and measured at 24 hrs; assay type: ADME, organism-based; details: in vivo
[21] = Drug recovery in lung of male Sprague-Dawley rat at 4.5 mg/kg, po administered as C14-lableled compound and assessed as radioactivity and measured at 24 hrs; assay type: ADME, organism-based; details: in vivo, BLD = below limit of detection
[22] = Drug recovery in ileum of male Sprague-Dawley rat at 4.5 mg/kg, po administered as C14-lableled compound and assessed as radioactivity and measured at 24 hrs; assay type: ADME, organism-based; details: in vivo
[23] = Drug recovery in plasma of male Sprague-Dawley rat at 4.5 mg/kg, po administered as C14-lableled compound and assessed as radioactivity and measured at 24 hrs; assay type: ADME, organism-based; details: in vivo, BLD = below limit of detection
[24] = Toxicity in po dosed Sprague-Dawley rat assessed as maximum tolerated dose; assay type: organism-based; details: in vivo

Estrogen receptor beta, sequence (Q92731 whole entry): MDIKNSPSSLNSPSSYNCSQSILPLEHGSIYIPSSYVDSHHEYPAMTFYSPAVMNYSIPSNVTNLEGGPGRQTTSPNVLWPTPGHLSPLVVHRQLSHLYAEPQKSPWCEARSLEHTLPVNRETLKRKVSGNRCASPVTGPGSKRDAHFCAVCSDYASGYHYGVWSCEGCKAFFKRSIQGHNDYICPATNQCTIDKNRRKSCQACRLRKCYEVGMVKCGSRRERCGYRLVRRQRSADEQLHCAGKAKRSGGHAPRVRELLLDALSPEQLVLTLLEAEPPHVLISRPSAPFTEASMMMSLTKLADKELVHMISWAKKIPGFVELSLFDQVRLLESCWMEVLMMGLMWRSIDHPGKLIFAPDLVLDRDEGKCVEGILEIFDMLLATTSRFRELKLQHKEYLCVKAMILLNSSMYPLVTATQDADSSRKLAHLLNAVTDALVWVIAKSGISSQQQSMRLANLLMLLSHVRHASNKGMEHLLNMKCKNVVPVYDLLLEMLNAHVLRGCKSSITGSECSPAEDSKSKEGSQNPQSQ

**Q.** For `O=C(O)c1ccc2c(c1)Oc1ccc(OCc3c(-c4c(Cl)cccc4Cl)noc3C3CC3)nc1C1(CC1)C2`, which half-life [1] is on record?
**A.** 1.6 h

**Q.** What about the bioavailability [2] of the same molecule?
**A.** 50.8%

**Q.** And the Activity (Mus musculus [3])?
**A.** Active

**Q.** And the EC50 (Estrogen receptor beta)?
**A.** > 10 µM

**Q.** What about the EC50 [4] of the same molecule?
**A.** > 10 µM

**Q.** And the fold change (FC) [5]?
**A.** 24

**Q.** What about the Activity (Mus musculus [6]) of the same molecule?
**A.** Active

**Q.** And the Activity (Mus musculus [7])?
**A.** Active

**Q.** What about the Activity (Mus musculus [8]) of the same molecule?
**A.** Active

**Q.** And the Activity (Mus musculus [9])?
**A.** Active

**Q.** And the Activity (Mus musculus [10])?
**A.** Active

**Q.** What about the Activity (Mus musculus [11]) of the same molecule?
**A.** Active

**Q.** What about the Drug recovery [12] of the same molecule?
**A.** 208 ngequiv/g

**Q.** What about the Drug recovery [13] of the same molecule?
**A.** 868 ngequiv/g

**Q.** What about the Drug recovery [14] of the same molecule?
**A.** 5308 ngequiv/g

**Q.** And the Drug recovery [15]?
**A.** 6520 ngequiv/g

**Q.** What about the Drug recovery [16] of the same molecule?
**A.** Bld

**Q.** And the Drug recovery [17]?
**A.** 67.8 ngequiv/g

**Q.** What about the Drug recovery [18] of the same molecule?
**A.** 5620 ngequiv/g

**Q.** What about the Drug recovery [19] of the same molecule?
**A.** Bld

**Q.** And the Drug recovery [20]?
**A.** 206 ngequiv/g

**Q.** What about the Drug recovery [21] of the same molecule?
**A.** Bld

**Q.** And the Drug recovery [22]?
**A.** 1542 ngequiv/g

**Q.** And the Drug recovery [23]?
**A.** Bld

**Q.** And the MTD [24]?
**A.** 2000 mg/kg
